Assay results taken from patent US20220170930A1, “METHOD FOR SCREENING COMPOUND FOR TREATING OR PREVENTING POLYQ-RELATED NEURODEGENERATIVE DISEASES” (FUDAN UNIVERSITY, priority 2019, published 2022).

Assays:
flHTT-Q73 = target: T1, flHTT-Q73 (Homo sapiens, UniProt P42858, INS38QQQQQQQQQQQQQQQQQQQQQQQQQQQQQQQQQQQQQQQQQQQQQQQQQQQQ); test: MST affinity with flHTT-Q73; format: binding; conditions: MST, flHTT-Q73, protein 500 nM; read-out: Kd
T1 construct: LC3B, full-length mHTT (flHTT-Q73) and full-length HTT-Q23 (flHTT-Q23); protein A (N, cleaved yes); made in house; host or cells: human embryonic kidney E293 cells

wtHTT = target: T2, wtHTT (Mus musculus, UniProt P42859); test: Western-blot wtHTT level in primary cultured cortical neurons; format: cell-based; conditions: Hdh^Q7/Q7 cortical neurons, 2 days
T2 construct: endogenous in cells; host or cells: primary cortical neurons of newborn Hdh Q140/Q7 and Hdh Q7/Q7 mice
Method: Primary cultured cortical neurons: The brains of Hdh^Q140/Q7 and Hdh^Q7/Q7 newborn mice (P0) were dissected, digested, dissociated, and cultured.
(1) The primary cultured Hdh^Q140/Q7 and Hdh^Q7/Q7 mouse cortical neuron cells were treated with the compound for 2 days.

mHTT = test: Intracerebroventricular injection, mHTT and wtHTT in cortices of HD mice; format: in vivo, mouse
Method: Experimental animals: Hdh^Q140/Q7 mice (3 months old), 4 in each group.
Each test includes three repetitions for each sample, and the mean values was calculated (FIG. 16).

SQSTM1/p62 = SQSTM1/p62 level in mouse cortices after ip injection; format: in vivo; conditions: HD mice
Method: Using a method similar to 6.2, Hdh^Q140/Q7 mice were administered with injections. A method similar to 7.1 was used to detect the effects of ip-injection of compounds on other known autophagy selective substrate proteins (SQSTM1/p62) in the cortical tissue of Hdh^Q140/Q7 mice.

[1] = target: T3, binding between HTTexon1-Q25-MBP and LC3B (Homo sapiens, UniProt Q9GZQ8); test: In vitro pull-down HTTexon1-Q25-MBP and LC3B; format: biochemical; conditions: 1 μM compound 1 or 100 nM compound 4
T3 construct: His8 (N, cleaved yes); GST (from pGEX-6P1) (N, cleaved yes); made in house; LC3B: E. coli BL21(DE3)pLsyS
Method: Incubation was conducted. Then the unbound proteins were removed.
(3) The resin-bound proteins were eluted and analyzed by SDS-PAGE and Western-blots with anti-LC3 antibody (FIG. 22a).

Q72-GFP [2] = test: OI-RD affinity reaction parameters with Q72-GFP; format: binding
Source text: (§1) (1) PolyQ-GFP cDNA sequence (expressing Met-polyQ-GFP, wherein polyQ was Q72 or Q25) was synthesized de novo and subcloned into pcDNA vector. […] And the same method was used to obtain cells expressing Q53-GFP, cells expressing Q46-GFP, and cells expressing Q38-GFP.

Q53-GFP = test: OI-RD affinity reaction parameters with Q53-GFP; format: binding
Source text: as §1

Q46-GFP = test: OI-RD affinity reaction parameters with Q46-GFP; format: binding
Source text: as §1

GFP = test: OI-RD affinity screening with GFP; format: binding; conditions: OI-RD difference images
Method: (§2) To identify compound(s) that can selectively bind to proteins containing expanded polyglutamine, screening was conducted using a method similar to 1.1, except for that the target protein HTTexon1-Q72-MBP in step (1) of 1.1 was replaced with the polyQ-GFP protein prepared in 10.1, and the target protein HTTexon1-Q25-MBP in step (2) of 1.1 was replaced with GFP.

[3] = system: proteins with expanded polyglutamine (polyQ-GFP); test: OI-RD affinity screening with polyQ-GFP proteins; format: binding; conditions: OI-RD difference images
Method: as §2

[4] = target: T4, wild-type ATXN3 protein (ATXN3-Q27) (Homo sapiens, UniProt P54252, G306R/INS305QQQQQQQQQQQQQQQQQ/V212M); test: Western-blot wild-type ATXN3 level in fibroblasts; format: cell-based; conditions: 100 nM (compound 4: 50 nM), 2 days
T4 construct: endogenous in cells; host or cells: wild-type fibroblasts (Q27) and/or the normal allele in SCA3 patient fibroblasts
Method: Then the levels of mutant ATXN3 protein (ATXN3-Q74, SEQ ID NO: 2) and wild-type ATXN3 protein (ATXN3-Q27, SEQ ID NO: 7) were determined by Western-blots (FIG. 26). […] Therefore, the compound of the present invention can be used to treat SCA3.

[5] = target: T5, mutant ATXN1 protein (His-ATXN1-Q92) (Homo sapiens, UniProt P54253, INS208QQQQQQQQQQQQQQQQQQQQQQQQQQQQQQQQQQQQQQQQQQQQQQQQQQQQQQQQQQQQQQQQQQQQQQQQQQQQQQQQ); test: HTRF mutant ATXN1 level in His-ATXN1-Q92-expressing cells; format: cell-based; conditions: 100 nM, 2 days, anti-His-Tb/MW1-D2
T5 construct: expressed in transfected cells; host or cells: HEK293T cells (ATCC, CRL-3216)

Q72-GFP [6] = test: MST affinity with Q72-GFP
Method: (§3) The affinity of the compound with full-length HTT and LC3B was verified with micro thermophoresis (MST) using Monolith NT.115 instrument from NanoTemper Technologies. The reaction buffer was 20 mM HEPES, pH 7.4, 150 mM NaCl.

Q25-GFP = test: MST affinity with Q25-GFP
Method: as §3

MBP-ATXN3-Q68 [7] = target: T6, MBP-ATXN3-Q68 (Homo sapiens, UniProt P54252, INS305QQQQQQQQQQQQQQQQQQQQQQQQQQQQQQQQQQQQQQQQQQQQQQQQQQQQQQQQQQ); test: MST affinity with MBP-ATXN3-Q68
Method: as §3

MBP-ATXN3-Q68 [8] = target: T6, MBP-ATXN3-Q68; test: OI-RD affinity screening with MBP-ATXN3-Q68; format: binding; parameters: His8 with TEV protease cleavage site; made in house; host or cells: Escherichia coli Rosetta(DE3)pLsyS; conditions: OI-RD difference images
Method: Screening was conducted using a method similar to 1.1, except for that the target protein HTTexon1-Q72-MBP in step (1) of 1.1 was replaced with MBP-ATXN3-Q68 and the target protein HTTexon1-Q25-MBP in step (2) of 1.1 was replaced with MBP-ATXN3-Q28, to obtain compounds that can selectively bind to ATXN3 with abnormally expanded polyQ (MBP-ATXN3-Q68).

T6 sequence (P54252 with tags, fused parts or gaps isoform P54252-4 with the stated changes): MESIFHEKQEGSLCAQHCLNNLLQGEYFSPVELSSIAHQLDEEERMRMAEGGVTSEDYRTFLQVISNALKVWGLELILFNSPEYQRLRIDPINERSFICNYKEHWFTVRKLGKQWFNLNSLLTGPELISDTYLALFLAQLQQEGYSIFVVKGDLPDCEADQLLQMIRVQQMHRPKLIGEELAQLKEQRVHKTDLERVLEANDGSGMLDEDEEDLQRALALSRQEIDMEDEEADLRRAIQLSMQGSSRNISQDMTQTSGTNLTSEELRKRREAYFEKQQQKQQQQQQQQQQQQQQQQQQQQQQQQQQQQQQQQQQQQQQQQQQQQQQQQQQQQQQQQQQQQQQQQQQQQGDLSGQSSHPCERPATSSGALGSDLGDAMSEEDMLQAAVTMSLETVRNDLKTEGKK
T5 sequence (P54253 with tags, fused parts or gaps with the stated changes): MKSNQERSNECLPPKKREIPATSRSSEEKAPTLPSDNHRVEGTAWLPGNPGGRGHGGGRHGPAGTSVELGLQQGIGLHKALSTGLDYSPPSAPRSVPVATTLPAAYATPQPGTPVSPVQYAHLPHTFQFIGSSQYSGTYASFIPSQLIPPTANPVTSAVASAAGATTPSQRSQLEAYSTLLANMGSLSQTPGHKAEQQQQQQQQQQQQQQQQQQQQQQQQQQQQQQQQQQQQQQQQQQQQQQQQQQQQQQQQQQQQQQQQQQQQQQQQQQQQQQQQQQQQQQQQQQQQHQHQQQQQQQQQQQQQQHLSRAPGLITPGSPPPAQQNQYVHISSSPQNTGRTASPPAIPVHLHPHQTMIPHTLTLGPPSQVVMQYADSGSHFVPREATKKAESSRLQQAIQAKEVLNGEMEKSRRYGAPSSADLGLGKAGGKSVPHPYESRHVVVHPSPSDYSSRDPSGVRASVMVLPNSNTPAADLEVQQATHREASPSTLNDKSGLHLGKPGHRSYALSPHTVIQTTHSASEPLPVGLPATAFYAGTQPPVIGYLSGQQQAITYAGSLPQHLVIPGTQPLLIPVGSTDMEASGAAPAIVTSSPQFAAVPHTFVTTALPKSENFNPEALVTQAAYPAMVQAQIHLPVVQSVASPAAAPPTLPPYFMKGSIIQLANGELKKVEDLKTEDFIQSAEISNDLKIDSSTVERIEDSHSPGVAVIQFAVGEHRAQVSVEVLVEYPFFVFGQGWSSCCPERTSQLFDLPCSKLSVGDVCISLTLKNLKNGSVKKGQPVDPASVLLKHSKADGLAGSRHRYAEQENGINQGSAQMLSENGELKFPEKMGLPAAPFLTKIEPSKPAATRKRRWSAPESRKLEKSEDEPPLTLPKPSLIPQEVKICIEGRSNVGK
T4 sequence (P54252 with tags, fused parts or gaps isoform P54252-1 with the stated changes): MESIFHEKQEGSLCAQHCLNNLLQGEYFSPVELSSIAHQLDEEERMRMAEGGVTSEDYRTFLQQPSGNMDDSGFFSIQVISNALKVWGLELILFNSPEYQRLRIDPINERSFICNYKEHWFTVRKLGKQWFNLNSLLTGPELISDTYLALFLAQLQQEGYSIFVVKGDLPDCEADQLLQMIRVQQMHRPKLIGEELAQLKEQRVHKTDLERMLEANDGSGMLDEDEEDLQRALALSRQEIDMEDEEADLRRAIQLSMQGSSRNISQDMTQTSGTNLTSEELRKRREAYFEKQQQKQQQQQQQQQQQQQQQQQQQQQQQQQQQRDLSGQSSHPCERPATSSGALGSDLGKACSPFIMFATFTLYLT
T2 sequence (P42859 whole entry): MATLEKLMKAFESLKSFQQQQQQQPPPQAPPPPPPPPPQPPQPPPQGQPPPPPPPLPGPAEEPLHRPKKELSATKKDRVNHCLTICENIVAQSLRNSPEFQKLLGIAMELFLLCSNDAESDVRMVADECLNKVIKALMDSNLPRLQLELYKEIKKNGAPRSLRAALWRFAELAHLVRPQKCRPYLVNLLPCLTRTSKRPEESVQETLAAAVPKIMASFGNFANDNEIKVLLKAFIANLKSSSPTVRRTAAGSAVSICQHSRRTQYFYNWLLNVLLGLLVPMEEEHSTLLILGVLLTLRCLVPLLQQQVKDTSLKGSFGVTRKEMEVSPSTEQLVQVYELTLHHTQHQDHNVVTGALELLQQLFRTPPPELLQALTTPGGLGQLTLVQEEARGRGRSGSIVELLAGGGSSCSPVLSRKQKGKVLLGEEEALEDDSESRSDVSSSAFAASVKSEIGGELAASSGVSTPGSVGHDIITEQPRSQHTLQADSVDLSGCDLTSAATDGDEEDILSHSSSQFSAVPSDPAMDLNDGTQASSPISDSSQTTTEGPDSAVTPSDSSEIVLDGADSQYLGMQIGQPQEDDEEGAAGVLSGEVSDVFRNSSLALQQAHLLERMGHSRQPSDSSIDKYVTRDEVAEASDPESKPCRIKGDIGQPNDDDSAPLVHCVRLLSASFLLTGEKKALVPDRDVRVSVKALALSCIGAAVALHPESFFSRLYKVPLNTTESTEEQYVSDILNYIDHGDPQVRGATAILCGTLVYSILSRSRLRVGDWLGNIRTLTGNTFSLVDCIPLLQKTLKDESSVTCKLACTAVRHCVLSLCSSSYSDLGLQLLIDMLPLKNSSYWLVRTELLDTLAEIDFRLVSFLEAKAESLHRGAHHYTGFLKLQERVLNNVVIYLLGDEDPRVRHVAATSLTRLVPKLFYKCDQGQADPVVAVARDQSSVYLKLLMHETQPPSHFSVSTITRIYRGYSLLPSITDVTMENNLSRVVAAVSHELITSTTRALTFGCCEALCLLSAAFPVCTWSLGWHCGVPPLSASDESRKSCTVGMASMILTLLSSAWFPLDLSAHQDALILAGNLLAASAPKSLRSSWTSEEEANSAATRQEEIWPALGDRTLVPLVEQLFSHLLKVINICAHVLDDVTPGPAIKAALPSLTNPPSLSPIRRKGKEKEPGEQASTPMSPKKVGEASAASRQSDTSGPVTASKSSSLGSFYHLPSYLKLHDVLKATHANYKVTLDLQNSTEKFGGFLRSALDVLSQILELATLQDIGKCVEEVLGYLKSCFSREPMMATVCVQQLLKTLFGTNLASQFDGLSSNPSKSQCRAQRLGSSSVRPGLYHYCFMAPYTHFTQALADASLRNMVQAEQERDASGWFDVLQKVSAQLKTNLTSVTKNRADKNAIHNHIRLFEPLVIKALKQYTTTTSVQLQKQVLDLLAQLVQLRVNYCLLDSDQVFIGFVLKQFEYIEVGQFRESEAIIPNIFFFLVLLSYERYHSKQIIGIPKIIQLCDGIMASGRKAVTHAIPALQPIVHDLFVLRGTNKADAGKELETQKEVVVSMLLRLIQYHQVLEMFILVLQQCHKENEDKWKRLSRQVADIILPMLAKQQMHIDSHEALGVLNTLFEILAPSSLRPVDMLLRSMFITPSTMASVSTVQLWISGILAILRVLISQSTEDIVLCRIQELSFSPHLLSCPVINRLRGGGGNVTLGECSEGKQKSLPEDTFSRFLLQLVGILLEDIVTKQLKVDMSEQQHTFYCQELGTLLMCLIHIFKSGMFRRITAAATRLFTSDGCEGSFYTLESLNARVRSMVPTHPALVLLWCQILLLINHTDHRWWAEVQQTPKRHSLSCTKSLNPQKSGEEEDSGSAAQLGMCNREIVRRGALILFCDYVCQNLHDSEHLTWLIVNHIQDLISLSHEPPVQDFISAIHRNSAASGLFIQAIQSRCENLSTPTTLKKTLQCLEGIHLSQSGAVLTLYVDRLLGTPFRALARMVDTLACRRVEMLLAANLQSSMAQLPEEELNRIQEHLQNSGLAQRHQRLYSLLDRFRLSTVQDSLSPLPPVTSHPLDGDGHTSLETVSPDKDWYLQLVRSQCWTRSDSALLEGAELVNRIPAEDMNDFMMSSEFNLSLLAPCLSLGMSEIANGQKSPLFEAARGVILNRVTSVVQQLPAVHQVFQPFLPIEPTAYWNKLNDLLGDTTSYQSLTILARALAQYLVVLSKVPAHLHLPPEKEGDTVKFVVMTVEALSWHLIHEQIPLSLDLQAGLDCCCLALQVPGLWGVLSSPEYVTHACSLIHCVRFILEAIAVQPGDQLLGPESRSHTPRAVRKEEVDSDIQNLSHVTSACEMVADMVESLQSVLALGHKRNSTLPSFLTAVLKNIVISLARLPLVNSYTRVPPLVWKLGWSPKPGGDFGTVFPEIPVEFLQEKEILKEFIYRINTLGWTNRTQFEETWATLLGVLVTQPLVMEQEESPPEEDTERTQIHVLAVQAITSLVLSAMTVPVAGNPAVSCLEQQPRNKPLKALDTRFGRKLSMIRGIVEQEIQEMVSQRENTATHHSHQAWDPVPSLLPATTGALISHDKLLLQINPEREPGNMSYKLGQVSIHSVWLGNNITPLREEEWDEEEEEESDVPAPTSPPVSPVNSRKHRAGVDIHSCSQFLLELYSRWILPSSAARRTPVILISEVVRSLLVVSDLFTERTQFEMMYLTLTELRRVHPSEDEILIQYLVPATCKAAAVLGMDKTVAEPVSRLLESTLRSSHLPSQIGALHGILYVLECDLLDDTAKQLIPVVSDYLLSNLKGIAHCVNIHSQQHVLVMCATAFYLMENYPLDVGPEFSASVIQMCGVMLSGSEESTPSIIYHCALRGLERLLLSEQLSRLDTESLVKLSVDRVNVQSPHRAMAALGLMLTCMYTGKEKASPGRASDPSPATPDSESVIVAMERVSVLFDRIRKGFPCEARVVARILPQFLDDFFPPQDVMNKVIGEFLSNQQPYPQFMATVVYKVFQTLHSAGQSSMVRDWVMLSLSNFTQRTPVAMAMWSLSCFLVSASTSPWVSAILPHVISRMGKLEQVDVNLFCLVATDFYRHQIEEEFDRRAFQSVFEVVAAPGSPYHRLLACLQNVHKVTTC

O=C1Nc2ccc(I)cc2/C1=C/c1cc(Br)c(O)c(Br)c1 [compound 1, GW5074]
Kd (flHTT-Q73): 3460 nM | wtHTT levels (wtHTT): did not reduce wtHTT levels | mHTT selectivity relative to wtHTT (mHTT; Hdh^Q140/Q7 mice, icv, 10 days): showed mHTT selectivity relative to wtHTT | mHTT level in cortices (mHTT; mouse, in vivo): significantly reduced mHTT level | level of SQSTM1/p62 in the cortices (SQSTM1/p62): did not change | binding between HTTexon1-Q25-MBP and LC3B [1]: but not between HTTexon1-Q25-MBP and LC3B | Kd (Q72-GFP [2]): 180 nM | Koff (Q72-GFP [2]): 0.000252 s⁻¹ | Kon (Q72-GFP [2]): 8.37e-05 min/nM | Kd (Q53-GFP): 25 nM | Koff (Q53-GFP): 6.3e-05 s⁻¹ | Kon (Q53-GFP): 0.000151 min/nM | Kd (Q46-GFP): 60.2 nM | Koff (Q46-GFP): 0.000305 s⁻¹ | Kon (Q46-GFP): 0.000304 min/nM | binding to GFP (GFP): did not bind | binding affinity to proteins with 38 or more glutamine repeats [3]: showed certain binding affinity | wild-type ATXN3 protein level [4]: no decrease in wild-type ATXN3 protein level was observed | level of mutant ATXN1 protein (His-ATXN1-Q92) [5]: Decreased levels of mutant ATXN1 were observed | Kd (Q72-GFP [6]): 3000 nM | binding affinity to Q25-GFP (Q25-GFP): no binding affinity | Kd (MBP-ATXN3-Q68 [7]): 6320 nM | binding to MBP-ATXN3-Q68 (MBP-ATXN3-Q68 [8]): binded
